Reference: patent US9718828B2 (MERCK SHARP & DOHME CORP., priority 2011, dated 2017)
pIC50: −log10 of the molar value.

biological target: hBTK (full-length BTK, 6HIS-tag cleaved) (Homo sapiens (Human), UniProt Q06187); experiment: BTK enzymatic activity, IMAP-FP assay (Assay Method B); assay type: biochemical; settings: IMAP-FP, 1.05 nM hBTK, 5 μM ATP; class 100-1000 is given as ≧100 nM-<1 μM; read-out: IC50 Btk activity values - Assay Method B
Method: BTK enzymatic activity was determined in an IMAP-FP assay (Immobilized Metal ion Affinity-based fluorescence Polarization; Molecular Devices). […] Phosphorylation reactions were allowed to proceed for 120 minutes and were immediately quenched by the addition of 40 μL IMAP detection beads resuspended in IMAP progressive binding buffer (beads were diluted 1:600 in 75% and 25% progressive binding buffer A and B, respectively; Molecular Devices). Plates were read on Packard microplate reader after 60 minutes binding equilibration using Fluorescence Polarization protocol.

Sequence of hBTK (full-length BTK, 6HIS-tag cleaved) (Q06187 whole entry): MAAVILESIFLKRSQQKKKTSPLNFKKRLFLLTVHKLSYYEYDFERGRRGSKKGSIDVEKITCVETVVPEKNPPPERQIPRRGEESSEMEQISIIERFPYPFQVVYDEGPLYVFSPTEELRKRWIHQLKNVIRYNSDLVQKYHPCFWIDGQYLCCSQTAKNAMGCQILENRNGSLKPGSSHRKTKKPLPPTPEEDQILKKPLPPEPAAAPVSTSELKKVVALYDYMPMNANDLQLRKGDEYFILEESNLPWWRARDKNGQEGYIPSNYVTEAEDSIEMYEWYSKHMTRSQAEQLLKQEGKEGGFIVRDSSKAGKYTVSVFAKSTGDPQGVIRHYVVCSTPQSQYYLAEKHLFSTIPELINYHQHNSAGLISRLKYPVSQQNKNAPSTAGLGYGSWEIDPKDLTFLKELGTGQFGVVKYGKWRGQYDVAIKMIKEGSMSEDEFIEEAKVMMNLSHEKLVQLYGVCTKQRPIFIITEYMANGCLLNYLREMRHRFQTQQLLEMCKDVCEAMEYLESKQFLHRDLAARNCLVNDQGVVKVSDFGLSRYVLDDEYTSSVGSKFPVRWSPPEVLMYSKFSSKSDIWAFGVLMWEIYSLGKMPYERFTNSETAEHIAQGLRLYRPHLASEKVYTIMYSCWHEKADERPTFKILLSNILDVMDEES

pIC50	SMILES
7.00 to 8.00	C[C@H]1CC[C@H](c2nc(-c3ccc(C(=O)Nc4cc(C(F)(F)F)ccn4)cc3)c3c(N)nccn23)CN1C(=O)C1(C)COC1 [Example 407, 4-(8-amino-3-{(3S,6S)-6-methyl-1-[(3-methyloxetan-3-yl)carbonyl]piperidin-3-yl}imidazo[1,5-a]pyrazin-1-yl)-N-[4-(trifluoromethyl)pyridin-2-yl]benzamide]
> 8.00	Nc1ncc(F)n2c([C@@H]3CCCN(C(=O)C4CC4)C3)nc(-c3ccc(C(=O)Nc4cc(C(F)(F)F)ccn4)cc3)c12 [Example 463, 4-{8-amino-3-[(3R)-1-(cyclopropylcarbonyl)piperidin-3-yl]-5-fluoroimidazo[1,5-a]pyrazin-1-yl}-N-[4-(trifluoromethyl)pyridin-2-yl]benzamide]
7.00 to 8.00	Cc1cc(-c2nc([C@@H]3CCCN(C(=O)C4(C)COC4)C3)n3ccnc(N)c23)ccc1C(=O)Nc1cc(C(F)(F)F)ccn1 [Example 474, 4-(8-amino-3-{(3R)-1-[(3-methyloxetan-3-yl)carbonyl]piperidin-3-yl}imidazo[1,5-a]pyrazin-1-yl)-2-methyl-N-[4-(trifluoromethyl)pyridin-2-yl]benzamide]
7.00 to 8.00	COCCC(=O)N1CCC[C@@H](c2nc(-c3ccc(C(=O)Nc4ccccn4)cc3O)c3c(N)nccn23)C1 [Example 475, 4-{8-amino-3-[(3R)-1-(3-methoxypropanoyl)piperidin-3-yl]imidazo[1,5-a]pyrazin-1-yl}-3-hydroxy-N-pyridin-2-ylbenzamide]
7.00 to 8.00	Cc1cc(C(=O)Nc2cc(C(F)(F)F)ccn2)ccc1-c1nc([C@@H]2CCCN(C(=O)C3(C)COC3)C2)n2ccnc(N)c12 [Example 479, 4-(8-amino-3-{(3R)-1-[(3-methyloxetan-3-yl)carbonyl]piperidin-3-yl}imidazo[1,5-a]pyrazin-1-yl)-3-methyl-N-[4-(trifluoromethyl)pyridin-2-yl]benzamide]
7.00 to 8.00	Cn1cc(CN2CCO[C@@H](c3nc(-c4ccc(C(=O)Nc5cc(C(F)(F)F)ccn5)cc4)c4c(N)nccn34)C2)cn1 [Example 495, 4-(8-amino-3-{(2R)-4-[(1-methyl-1H-pyrazol-4-yl)methyl]morpholin-2-yl}imidazo[1,5-a]pyrazin-1-yl)-N-[4-(trifluoromethyl)pyridin-2-yl]benzamide]
7.00 to 8.00	CCN1CCO[C@@H](c2nc(-c3ccc(C(=O)Nc4cc(C(F)(F)F)ccn4)cc3)c3c(N)nccn23)C1 [Example 496, 4-{8-amino-3-[(2R)-4-ethylmorpholin-2-yl]imidazo[1,5-a]pyrazin-1-yl}-N-[4-(trifluoromethyl)pyridin-2-yl]benzamide]
7.00 to 8.00	CN1CCO[C@@H](c2nc(-c3ccc(C(=O)Nc4cc(C(F)(F)F)ccn4)cc3)c3c(N)nccn23)C1 [Example 497, 4-{8-amino-3-[(2R)-4-methylmorpholin-2-yl]imidazo[1,5-a]pyrazin-1-yl}-N-[4-(trifluoromethyl)pyridin-2-yl]benzamide]
7.00 to 8.00	Cn1cc(CN2CCO[C@@H](c3nc(-c4ccc(C(=O)Nc5cc(C6CC6)ccn5)cc4)c4c(N)nccn34)C2)cn1 [Example 498, 4-(8-amino-3-{(2R)-4-[(1-methyl-1H-pyrazol-4-yl)methyl]morpholin-2-yl}imidazo[1,5-a]pyrazin-1-yl)-N-(4-cyclopropylpyridin-2-yl)benzamide]
7.00 to 8.00	Nc1nccn2c([C@H]3CN(C(=O)C4(N)CCC4)CCO3)nc(-c3ccc(C(=O)Nc4cc(C(F)(F)F)ccn4)cc3)c12 [Example 499, 4-(8-amino-3-{(2R)-4-[(1-aminocyclobutyl)carbonyl]morpholin-2-yl}imidazo[1,5-a]pyrazin-1-yl)-N-[4-(trifluoromethyl)pyridin-2-yl]benzamide]
7.00 to 8.00	COCC1(C(=O)N2CCO[C@@H](c3nc(-c4ccc(C(=O)Nc5cc(C(F)(F)F)ccn5)cc4)c4c(N)nccn34)C2)CCC1 [Example 500, 4-{8-amino-3-[(2R)-4-{[1-(methoxymethyl)cyclobutyl]carbonyl}morpholin-2-yl]imidazo[1,5-a]pyrazin-1-yl}-N-[4-(trifluoromethyl)pyridin-2-yl]benzamide]
6.00 to 7.00	CN1CCN(C)[C@@H](c2nc(-c3ccc(C(=O)Nc4cc(C(F)(F)F)ccn4)cc3)c3c(N)nccn23)C1 [Example 565, 4-{8-amino-3-[(2R)-1,4-dimethylpiperazin-2-yl]imidazo[1,5-a]pyrazin-1-yl}-N-[4-(trifluoromethyl)pyridin-2-yl]benzamide]
6.00 to 7.00	Cn1cc(CN2CCN[C@@H](c3nc(-c4ccc(C(=O)Nc5cc(C(F)(F)F)ccn5)cc4)c4c(N)nccn34)C2)cn1 [Example 566, 4-(8-amino-3-{(2R)-4-[(1-methyl-1H-pyrazol-4-yl)methyl]piperazin-2-yl}imidazo[1,5-a]pyrazin-1-yl)-N-[4-(trifluoromethyl)pyridin-2-yl]benzamide]
6.00 to 7.00	Cn1cc(CN2CCS(=O)(=O)C(c3nc(-c4ccc(C(=O)Nc5cc(C(F)(F)F)ccn5)cc4)c4c(N)nccn34)C2)cn1 (centres unmarked) [Example 569, 4-(8-amino-3-{4-[(1-methyl-1H-pyrazol-4-yl)methyl]-1,1-dioxidothiomorpholin-2-yl}imidazo[1,5-a]pyrazin-1-yl)-N-[4-(trifluoromethyl)pyridin-2-yl]benzamide]
6.00 to 7.00	CN1CCS(=O)(=O)C(c2nc(-c3ccc(C(=O)Nc4cc(C(F)(F)F)ccn4)cc3)c3c(N)nccn23)C1 (centres unmarked) [Example 570, 4-[8-amino-3-(4-methyl-1,1-dioxidothiomorpholin-2-yl)imidazo[1,5-a]pyrazin-1-yl]-N-[4-(trifluoromethyl)pyridin-2-yl]benzamide]
> 8.00	Nc1ncc(Br)n2c([C@@H]3CCCN(C(=O)C4CC4)C3)nc(-c3ccc(C(=O)Nc4cc(C(F)(F)F)ccn4)cc3)c12 [Example 577, (R)-4-(8-amino-5-bromo-3-(1-(cyclopropanecarbonyl)piperidin-3-yl)imidazo[1,5-a]pyrazin-1-yl)-N-(4-(trifluoromethyl)pyridin-2-yl)benzamide]

same assay, conditions: IMAP-FP, 1.05 nM hBTK, 5 μM ATP; read-out: IC50 Btk activity values - Assay Method B

pIC50	SMILES
≤ 6.00	CC1(C(=O)N2CCN[C@@H](c3nc(-c4ccc(C(=O)Nc5cc(C(F)(F)F)ccn5)cc4)c4c(N)nccn34)C2)CC1 [Example 567, 4-(8-amino-3-{(2R)-4-[(1-methylcyclopropyl)carbonyl]piperazin-2-yl}imidazo[1,5-a]pyrazin-1-yl)-N-[4-(trifluoromethyl)pyridin-2-yl]benzamide]
